SMILES strings stand for the structures.

Consider 35 compounds from the RepoRT retention time repository (doi:10.1016/j.jpba.2019.06.042).

The series is described as follows: Agilent ZORBAX Eclipse Plus C18, 150 × 2.1 mm, 3.5 µm, 0.2 mL/min, estimated dead time 1.7 min; A: water + 0.1% formic acid; B: acetonitrile; gradient (min/%B) 0/10 20/54 23/100 32/100. The following applies: stereoisomer not certain.
`CC(C)(OC1OC(CO)C(O)C(O)C1O)C1CCC(CO)(C(O)CO)O1` (stereo not given): the LC retention time was 23.6 min.
Then `CC(C)=CCCC(C)=CCc1c(O)c(CC2=C(O)C(C)(C)C(=O)C(C(=O)C(C)C)=C2O)c(O)c(C(=O)C(C)C)c1O`, with 18.3 min.
Then `COc1cc2oc(-c3ccccc3)c(OC)c(=O)c2c(OC)c1OC`, with 15.9 min; and `O=C1CC(c2ccc(O)cc2)Oc2cc(O)cc(O)c21` (stereo not given), with 15 min.
Then `C=C(C)C1CC=C2C(O)CC(O)C(C)C2(C)C1` (stereo not given), with 31.6 min.
Take `CC(C)=CCc1c(O)cc(O)c2c(=O)c3ccc(O)c(O)c3oc12`: the LC retention time is 28.8 min.
Then `COc1ccc2ccc(=O)oc2c1`, with 22.7 min.
Then `CCC(C)C(=O)c1c(O)c(C)c(O)c(CC2=C(O)C(C)(C)C(=O)C(C(=O)C(C)C)=C2O)c1O` (stereo not given), with 18.4 min; and `COc1ccc2c(=O)c3cccc(O)c3oc2c1`, with 25.7 min; and `O=C(C=Cc1ccc(O)c(O)c1)OC1CC(O)(C(=O)O)CC(O)C1O` (stereo not given), with 5.2 min.
With `CC1OC(Oc2c(-c3ccc(O)c(O)c3)oc3cc(O)cc(O)c3c2=O)C(O)C(O)C1O` (stereo not given) the figure was 9.9 min.
Regarding `O=C1c2c(O)cc(O)cc2OC(c2ccc(O)c(O)c2)C1O` (stereo not given), the LC retention time was 11.6 min.
With `O=C1c2c(O)cc(O)cc2OC(c2ccc(O)cc2)C1O` (stereo not given) the figure was 14 min.
With `O=C(O)C1OC(Oc2c(-c3ccc(O)c(O)c3)oc3cc(O)cc(O)c3c2=O)C(O)C(O)C1O` (stereo not given) the figure was 9.3 min; with `COc1ccc2ccc(=O)oc2c1CC=C(C)C`, 26 min; with `CC1(C)C=Cc2c(cc(O)c3c(=O)c4cccc(O)c4oc23)O1`, 29 min.
With `CC1OC(Oc2cc(O)c3c(=O)c(O)c(-c4ccc(O)cc4)oc3c2)C(O)C(O)C1O` (stereo not given) the figure was 10.2 min; with `Cc1c(O)c(CC2=C(O)C(C)(C)C(=O)C(C(=O)C(C)C)=C2O)c(O)c(C(=O)C(C)C)c1O`, 20.1 min.
For `O=c1ccc2ccc(O)cc2o1`, the LC retention time is 20.5 min.
Consider `O=C(O)C1(O)CC(O)C(O)C(O)C1` (stereo not given), for which the LC retention time was 3.1 min.
With `COc1cc(O)c2c(=O)c(O)c(-c3ccc(O)cc3)oc2c1` the figure was 12.5 min.
With `CC1(C)C=Cc2c(cc(O)c3c(=O)c4ccc(O)c(O)c4oc23)O1` the figure was 15.6 min; with `O=c1c2cccc(O)c2oc2cc(O)cc(O)c12`, 26.9 min.
On to `COc1c(-c2ccc(O)c(O)c2)oc2cc(O)cc(O)c2c1=O`, for which the LC retention time is 12.2 min.
With `CC1=CC(=O)CC(C)(C)C1(O)C=CC(C)OC1OC(CO)C(O)C(O)C1O` (stereo not given) the figure was 10.3 min; with `O=C(C=Cc1ccc(O)c(O)c1)OC1C(O)CC(O)(C(=O)O)CC1O` (stereo not given), 6.6 min; with `O=c1cc(-c2ccc(O)c(-c3c(O)cc(O)c4c(=O)cc(-c5ccc(O)cc5)oc34)c2)oc2cc(O)cc(O)c12`, 14.9 min.
Take `CC1OC(OCC2OC(Oc3c(-c4ccc(O)c(O)c4)oc4cc(O)cc(O)c4c3=O)C(O)C(O)C2O)C(O)C(O)C1O` (stereo not given): the LC retention time is 9.7 min.
Then `COc1cc(C=CC(=O)O)cc(OC)c1O`, with 15.2 min.
Then `O=c1c(O)c(-c2ccc(O)c(O)c2)oc2cc(O)cc(O)c12`, with 10.6 min; and `CCC(C)C(=O)c1c(O)c(C)c(OCC=C(C)CCC=C(C)C)c(C(C)=O)c1O` (stereo not given), with 15.4 min.
With `O=c1c(OC2OC(CO)C(O)C(O)C2O)c(-c2ccc(O)c(O)c2)oc2cc(O)cc(O)c12` (stereo not given) the figure was 8.8 min; with `O=c1c(O)c(-c2ccc(O)cc2)oc2cc(O)cc(O)c12`, 13.5 min.
On to `O=c1c(-c2c(O)cc(O)c3c(=O)cc(-c4ccc(O)cc4)oc23)c(-c2ccc(O)cc2)oc2cc(O)cc(O)c12`, for which the LC retention time is 13.6 min.
With `CC(C)=CCC1CC2(CC=C(C)C)C(=O)C(=C(O)c3ccccc3)C(=O)C(CC=C(C)C)(C2=O)C1(C)C` (stereo not given), the LC retention time was 20.4 min.
